Series [1] relates to bovine liver β-D-galactosidase (EC 3.2.1.23). In words: Enzymatic hydrolysis with β-galactosidase. Conditions: for hydrolysis by β-galactosidase (in words): 0.5 units in 200 μL water at 37° C. for 24 h, products by GC. The series is classed as biochemical. The method, then: (§1) Acid and Enzymic Hydrolysis. […] Enzyme protein was removed by filtration (10,000 MW cut-off filter), samples were dried, and products assayed by GC analysis of trimethylsilyl derivatives. Raffinose and lactose (100 μg) were hydrolyzed only by α- or β-D-galactosidase respectively, confirming that both enzymes were active.
(§2) Acid and Enzymic Hydrolysis. […] Enzyme protein was removed by filtration (10,000 MW cut-off filter), samples were dried, and products assayed by GC analysis of trimethylsilyl derivatives. Raffinose and lactose (100 μg) were hydrolyzed by α- or β-D-galactosidase respectively, confirming that both enzymes were active.

The test system of series [2] is human fecal microflora. The series is described as follows: In vitro fermentation of fagopyritol-enriched buckwheat extract by human fecal microflora. It counts as in vitro ADME. Conditions: 40° C.; for concentration of inositols and fagopyritols: anaerobic. As to the method: Fermentation tests were done with fagopyritol-enriched Birkett Mills buckwheat extract that had previously been treated with dry granular baking yeast. Yeast cells were removed by centrifugation (10 minutes at 19K rpm using a Sorvall refrigerated centrifuge) and ultrafiltration (Amicon filtration device, 10, 000 MW cut-off). The fagopyritol water extract was boiled under carbon dioxide to sterilize and remove all other gases.
Anaerobic conditions were maintained during the preparation of fecal inoculum and of all samples by working under streams of carbon dioxide gas. Fermentation bottles were sealed with rubber stoppers and metal caps.
Fagopyritol substrate was prepared first. Then, 1 ml was placed in all bottles except blanks (duplicate samples plus one control and one blank done for 0, 6, 12, and 24 hours). Next, the nutritive medium was prepared. Control bottles received 1 ml of the medium in place of inoculum. The remaining medium was used to dilute fresh feces 1:12, w/v, prepared as described in Barry et al., “In Vitro Fermentation of Neutral Monosaccharides by Ruminal and Human Fecal Microflora,” Acta Vet Scand, 86 (supplement): 93-95 (1989) and Guillon et al., “Characterization of Residual Fibers from Fermentation of Pea and Apple Fibres by Human Fecal Bacteria,” J. Sci. Food Agric., 68:521-529 (1995), which are hereby incorporated by reference. All samples and blanks were inoculated with 1 ml of fecal inoculum by syringe through the rubber stoppers.
A 40° C. water bath was used for the fermentation which was stopped at the specified times by opening bottles to air and immediately freezing.
The samples were prepared for GC analysis after thawing by centrifuging (microfuge, 8000 rpm) once and then again in 10,000 MW cut-off microfuge tubes. The salts present in those samples containing nutritive medium were removed by passing each sample through Amberlite mixed-bed resin, because salts interfere with TMS-derivitization. Two control samples of the original extract were also passed through the resin to insure that fagopyritols were not removed by the treatment.
A small volume of each (750 μL) was dried with 100 μg of internal standard (phenyl α-D-glucopyranoside) in silyation vials under a stream of nitrogen gas; vials were then placed in a desiccator over P205 overnight.
Trimethylsilyl derivitives were prepared by adding 100 μL of 1:1 pyridine:TMS solution and heating at 70° C. for 30 minutes.
Finally, derivitized samples were analyzed on the GC (HP 5890 Series II; DB-1 column; 0.25 mm i.d., 15 m length, 0.25 μm film thickness).

For series [3], the target named is T1, green coffee bean α-D-galactosidase (EC 3.2.1.22) (Coffea arabica, UniProt Q42656).
T1 construct: desalted green coffee bean α-D-galactosidase (EC 3.2.1.22); purchased Boehringer Mannheim Corporation, Indianapolis, Ind; host or cells: green coffee bean
T1 sequence (Q42656 16-378): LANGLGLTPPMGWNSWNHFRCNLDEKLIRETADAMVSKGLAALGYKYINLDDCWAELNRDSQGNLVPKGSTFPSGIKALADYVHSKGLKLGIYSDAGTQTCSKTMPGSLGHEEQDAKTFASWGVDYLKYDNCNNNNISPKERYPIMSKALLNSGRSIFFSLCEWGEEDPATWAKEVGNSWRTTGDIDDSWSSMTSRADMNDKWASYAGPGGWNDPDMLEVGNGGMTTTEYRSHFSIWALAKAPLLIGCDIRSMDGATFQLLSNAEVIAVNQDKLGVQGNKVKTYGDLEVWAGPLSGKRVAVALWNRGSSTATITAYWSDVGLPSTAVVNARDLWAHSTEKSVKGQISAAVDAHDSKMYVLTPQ
The series is described as follows: Enzymatic hydrolysis with α-galactosidase. The series is classed as biochemical. Conditions: for hydrolysis by α-galactosidase (in words): 1.25 units desalted enzyme in 200 μL water at 22° C. (Examples 22, 23), products by GC. As to the method: Enzymatic Digestion. One ml of green coffee bean α-galactosidase (EC 3.2.1.22) (Boehringer Mannheim Corporation, Indianapolis, Ind.) in 3.2 M ammonium sulfate was dialyzed overnight against 1000 ml of distilled water to remove the ammonium sulfate that interferes with the silylation reaction and causes variable results. […] After 24 h, 0.2 ml of absolute ethanol and 100 μg of internal standard were added. The mixture was heated to 90° C. for 5 min to inactivate the enzyme and centrifuged through a 10,000 Mr cutoff filter. The filtrate was evaporated to dryness in a stream of nitrogen gas, silylated, and analyzed by gas chromatography as above.
as §1, §2

[4] abbreviates: Controls (nutritive medium in place of fecal inoculum), 0 hrs.
Setting [5] is: Controls (nutritive medium in place of fecal inoculum), 6 hrs.
The mark [6] stands for this setting: Controls (nutritive medium in place of fecal inoculum), 12 hrs.
[7] abbreviates: Samples with human fecal inoculum, 0 hrs.
Setting [8] is: Samples with human fecal inoculum, 6 hrs.
Where [9] appears, read: Samples with human fecal inoculum, 12 hrs.

On to `OC[C@H]1O[C@@H](O[C@H]2[C@H](O)[C@@H](O)C(O)O[C@@H]2CO)[C@H](O)[C@@H](O)[C@H]1O` (stereo partly drawn) [lactose, reference compound], for which the “hydrolysis by β-galactosidase (in words)” value in series [1] is reported as “hydrolyzed”.

With `OC1C(O)C(O)C(O)C(O)C1O` [D-chiro-inositol], the concentration of inositols and fagopyritols amounted to 99 µg/750 µL in series [2] (setting [4]); 102 µg/750 µL in series [2] (setting [5]); 58 µg/750 µL in series [2] (setting [6]); 47 µg/750 µL in series [2] (setting [7]); 0 µg/750 µL in series [2] (setting [8]); 0 µg/750 µL in series [2] (setting [9]).

On to `OC[C@H]1O[C@H](OC[C@H]2O[C@H](O[C@@H]3[C@@H](O)[C@H](O)[C@@H](O)[C@H](O)[C@@H]3O)[C@H](O)[C@@H](O)[C@H]2O)[C@H](O)[C@@H](O)[C@H]1O` [digalactosyl myo-inositol, O-α-D-galactopyranosyl-(1→6)-O-α-D-galactopyranosyl-(1→3)-D-myo-inositol], for which the “hydrolysis by β-galactosidase (in words)” value in series [1] is listed as “not by β-galactosidase”. The “hydrolysis by α-galactosidase (in words)” value in series [3] is “completely hydrolyzed”.

For the molecule “O-α-D-galactopyranosyl-(1→6)-O-α-D-galactopyranosyl-(1→6)-O-α-D-galactopyranosyl-(1→2)-D-chiro-inositol [Fagopyritol B3]”, the “hydrolysis by α-galactosidase (in words)” value in series [3] is “completely hydrolyzed”. For the same molecule, the “Enzymic hydrolysis by α-D-galactosidase” value in series [3] (Fagopyritol A and B Series) is on record as “yes”.

Take `OCC1O[C@@H](O[C@H]2C(O)C(O)[C@H](O)C(O)C2O)C(O)C(O)[C@H]1O` (stereo partly drawn) [Fagopyritol A1, O-α-D-galactopyranosyl-(1→3)-D-chiro-inositol]: the “hydrolysis by β-galactosidase (in words)” value in series [1] is “not by β-D-galactosidase”. In series [1] (Fagopyritol A and B Series), the “Enzymic hydrolysis by β-D-galactosidase” value is “no”. Moreover, in series [3], the “hydrolysis by α-galactosidase (in words)” value is “hydrolyzed”. In series [3] (Fagopyritol A and B Series), the “Enzymic hydrolysis by α-D-galactosidase” value is “yes”. The concentration of inositols and fagopyritols in series [2] (setting [4]) came to 88 µg/750 µL; in series [2] (setting [5]) it was 87 µg/750 µL; in series [2] (setting [6]), 94 µg/750 µL; in series [2] (setting [7]) it was 106 µg/750 µL; in series [2] (setting [8]), 0 µg/750 µL; in series [2] (setting [9]), 0 µg/750 µL.

As for `O[C@H]1[C@H](O)[C@@H](O)[C@H](O)[C@@H](O)[C@H]1O` [myo-inositol], the concentration of inositols and fagopyritols in series [2] (setting [4]) was 45 µg/750 µL; in series [2] (setting [5]), 48 µg/750 µL; in series [2] (setting [6]), 26 µg/750 µL; in series [2] (setting [7]), 20 µg/750 µL; in series [2] (setting [8]), 0 µg/750 µL; in series [2] (setting [9]) it was 0 µg/750 µL.

With `OCC1OC(OCC2OC(OCC3OC(OC4C(O)C(O)C(O)C(O)C4O)C(O)C(O)C3O)C(O)C(O)C2O)C(O)C(O)C1O` [TGMI, O-α-D-galactopyranosyl-(1→6)-O-α-D-galactopyranosyl-(1→6)-O-α-D-galactopyranosyl-(1→3)-D-myo-inositol], in series [3], the “hydrolysis by α-galactosidase (in words)” value is on record as “completely hydrolyzed”.

With `OCC1O[C@H](OCC2O[C@@H](O[C@H]3C(O)C(O)[C@H](O)C(O)C3O)C(O)C(O)[C@H]2O)C(O)C(O)[C@H]1O` (stereo partly drawn) [Fagopyritol A2, O-α-D-galactopyranosyl-(1→6)-O-α-D-galactopyranosyl-(1→3)-D-chiro-inositol], the “hydrolysis by β-galactosidase (in words)” value in series [1] is “not by P-D-galactosidase”. Also, in series [1] (Fagopyritol A and B Series), the “Enzymic hydrolysis by β-D-galactosidase” value is on record as “no”. The “hydrolysis by α-galactosidase (in words)” value in series [3] is recorded as “hydrolyzed”. Further, in series [3] (Fagopyritol A and B Series), the “Enzymic hydrolysis by α-D-galactosidase” value was “yes”. Also, the concentration of inositols and fagopyritols in series [2] (setting [4]) was 56 µg/750 µL; in series [2] (setting [5]) it was 54 µg/750 µL; in series [2] (setting [6]), 59 µg/750 µL; in series [2] (setting [7]), 54 µg/750 µL; in series [2] (setting [8]), 0 µg/750 µL; in series [2] (setting [9]), 0 µg/750 µL.

For `OC[C@H]1O[C@H](OC2[C@@H](O)[C@H](O)C(O)[C@H](O)[C@@H]2O)[C@H](O)[C@@H](O)[C@H]1O` (stereo partly drawn) [Galactinol (gt1)], in series [1] (Galactinol Series), the “Enzymic hydrolysis by β-D-galactosidase” value was “no”. In addition, the “Enzymic hydrolysis by α-D-galactosidase” value in series [3] (Galactinol Series) is reported as “yes”.

On to `OC[C@H]1O[C@H](O[C@H]2O[C@H](CO)[C@@H](O)[C@H](O)[C@H]2O)[C@H](O)[C@@H](O)[C@@H]1O` [trehalose, O-α-D-glucopyranosyl-(1-1′)-O-α-D-glucoside], for which the “metabolism by fecal bacteria (in words)” value in series [2] (fermentation of fagopyritol-enriched extract) was “metabolized”.

`OC[C@H]1O[C@H](OC[C@H]2O[C@H](O[C@]3(CO)O[C@H](CO)[C@@H](O)[C@@H]3O)[C@H](O)[C@@H](O)[C@@H]2O)[C@H](O)[C@@H](O)[C@H]1O` [Raffinose, O-α-D-galactopyranosyl-(1→6)-α-D-glucopyranosyl-(1→2)-β-D-fructofuranoside, reference compound]: the “hydrolysis by α-galactosidase (in words)” value in series [3] is recorded as “hydrolyzed”.

Turning to `OCC1O[C@H](OC2C(O)[C@H](O)C(O)C(O)[C@@H]2O)C(O)C(O)[C@H]1O` (stereo partly drawn) [Fagopyritol B1, O-α-D-galactopyranosyl-(1→2)-D-chiro-inositol], the “hydrolysis by β-galactosidase (in words)” value in series [1] is listed as “not by β-D-galactosidase”. The “Enzymic hydrolysis by β-D-galactosidase” value in series [1] (Fagopyritol A and B Series) was “no”. Also, the “hydrolysis by α-galactosidase (in words)” value in series [3] is “hydrolyzed”. Besides, in series [3] (Fagopyritol A and B Series), the “Enzymic hydrolysis by α-D-galactosidase” value was “yes”. Moreover, the concentration of inositols and fagopyritols in series [2] (setting [4]) amounted to 667 µg/750 µL; in series [2] (setting [5]) it was 636 µg/750 µL; in series [2] (setting [6]) it was 605 µg/750 µL; in series [2] (setting [7]), 591 µg/750 µL; in series [2] (setting [8]), 0 µg/750 µL; in series [2] (setting [9]), 0 µg/750 µL.

In the case of `OCC1O[C@H](OCC2O[C@H](OC3C(O)[C@H](O)C(O)C(O)[C@@H]3O)C(O)C(O)[C@H]2O)C(O)C(O)[C@H]1O` (stereo partly drawn) [Fagopyritol B2, O-α-D-galactopyranosyl-(1→6)-O-α-D-galactopyranosyl-(1→2)-D-chiro-inositol], the “hydrolysis by β-galactosidase (in words)” value in series [1] was “not by P-D-galactosidase”. The “Enzymic hydrolysis by β-D-galactosidase” value in series [1] (Fagopyritol A and B Series) is recorded as “no”. For the same molecule, in series [3], the “hydrolysis by α-galactosidase (in words)” value was “hydrolyzed”. In addition, the “Enzymic hydrolysis by α-D-galactosidase” value in series [3] (Fagopyritol A and B Series) is reported as “yes”. In addition, the concentration of inositols and fagopyritols in series [2] (setting [4]) worked out at 83 µg/750 µL; in series [2] (setting [5]), 72 µg/750 µL; in series [2] (setting [6]) it was 66 µg/750 µL; in series [2] (setting [7]) it was 65 µg/750 µL; in series [2] (setting [8]), 0 µg/750 µL; in series [2] (setting [9]), 0 µg/750 µL.

For “O-α-D-galactopyranosyl-(1→6)-O-α-D-galactopyranosyl-(1→6)-O-α-D-galactopyranosyl-(1→3)-D-chiro-inositol [Fagopyritol A3]”, in series [1], the “hydrolysis by β-galactosidase (in words)” value is “not by P-D-galactosidase”. Moreover, the “Enzymic hydrolysis by β-D-galactosidase” value in series [1] (Fagopyritol A and B Series) was “no”. In series [3], the “hydrolysis by α-galactosidase (in words)” value is recorded as “hydrolyzed”. Also, the “Enzymic hydrolysis by α-D-galactosidase” value in series [3] (Fagopyritol A and B Series) is recorded as “yes”. Besides, the concentration of inositols and fagopyritols in series [2] (setting [4]) was determined as 21 µg/750 µL; in series [2] (setting [5]), 20 µg/750 µL; in series [2] (setting [6]) it was 26 µg/750 µL; in series [2] (setting [7]), 48 µg/750 µL; in series [2] (setting [8]), 0 µg/750 µL; in series [2] (setting [9]), 0 µg/750 µL.

For the origin of these results see patent US6825173B2, “Preparation of fagopyritols and uses therefor” (Cornell Research Foundation, Inc., priority 1997, dated 2004).
